According to patent US12527801B2, “Cell activator of animal cell” (Vitamin C60 BioResearch Corporation, priority 2019, dated 2026):

Key:
[1] = tested on: Normal human epidermal keratinocytes; assay: Action of activating epidermal cells (MTT reduction); format: cell-based; conditions: for Index (%) Mean ± S.D.: 48 h, untreated cells = 100
Description: Normal human epidermal keratinocytes were seeded on 96-well plates at the density of 5.0×10^3 cells/well using a HuMedia KG2 medium (KG2). 24 hours after seeding, the above-mentioned medium was replaced with a HuMedia KB2 medium (KB2) comprising the test sample. AOH and AHX (2-azahypoxanthine) were used as test samples, KG2 as a positive control (P. C.) for the cell activating action was treated instead of the test sample, and cells which were not treated with the samples were used as a negative control. After culturing for 48 hours, the above-mentioned medium was replaced with KB2 comprising 0.2 mg/mL of MTT to perform culturing for 1 hour. After removing the medium, the absorbance at 550 nm and 650 nm of the cell lysate in which 2-propanol was added to lyse the cells was measured. The amount of MTT reduced to blue formazan was obtained by subtracting the absorbance at 650 nm, which was derived from the cell turbidity, from the absorbance at 550 nm. The action of activating epidermal keratinocytes was shown as Index (%), which is a percentage of the absorbance of the cells, which was treated with the test samples, to the absorbance of the cells, which was not treated with the samples (negative control), with the amount of MTT reduced as an index.

[2] = tested on: Normal human epidermal keratinocytes; assay: Microarray test of gene expression (DNA Chip Genopal); format: cell-based; conditions: for ATP5F1 (internal standard) gene expression, Average / CDH1 (E-cadherin) gene expression, Average / CLDN1 (claudin 1) gene expression, Average / DSC1 (desmocollin 1) gene expression, Average / DSG1 (desmoglein 1) gene expression, Average / EDN1 (endothelin 1) gene expression, Average / FN1 (fibronectin) gene expression, Average / GUSB (internal standard) gene expression, Average / HAS3 (hyaluronan synthase) gene expression, Average / IVL (involucrin) gene expression, Average / KLK5 (kallikrein 5) gene expression, Average / KLK7 (kallikrein 7) gene expression, Average / KRT1 (keratin 1) gene expression, Average / KRT10 (keratin 10) gene expression, Average / PPIA (Cyclophilin) (internal standard) gene expression, Average / PTGES (prostaglandin E synthetase) gene expression, Average / PTGS2 (COX-2) (cyclooxygenase 2) gene expression, Average / RPLPO (internal standard) gene expression, Average / SPINK5 (LEKTI1) (serine protease inhibitor) gene expression, Average / SPRR1B (cornified envelope constituent protein) gene expression, Average / TGM1 (transglutaminase 1) gene expression, Average: 24 h, ratio, control as 1
Description: Normal human epidermal keratinocytes were seeded on 6-well plates at the cell density of 1.5×10^5 cells/well using a HuMedia-KG2 medium. After culturing for 24 hours, the medium was replaced with 3 mL of a HuMedia-KB2 medium comprising AOH at the concentration of 0, 30, 100, and 300 μg/mL. After the replacement, culturing was performed for 24 hours, and the cells were immersed in a QIAzol reagent and lysed. RNA purified using an miRNeasy Mini Kit (QIAGEN) was recovered from the lysate, and a DNA microarray was performed using an mRNA expression analysis chip (DNA Chip Genopal (registered trademark)). The obtained results were analyzed to represent the expression of various genes as a ratio with a correction value of the control as 1, and a significant difference test was performed using the Student's t-test (significance level p of 5%).
In Table 2, it can be determined that when the value is larger than 1, gene expression is increased, and when the p value is smaller than 0.05, there is a significant change with respect to the control (indicated by * in the table). AOH treatment varied the expression of some genes in a concentration-dependent manner.

[3] = Test of long-term continuous use (double blind, half face): water content of keratin and TEWL; format: in vivo, human; conditions: conclusion from 8-week use of toner with 0.1% by weight AOH
Description: A test of long-term continuous use (double blind test) was performed using a toner (toner B) comprising 0.1% by weight of AOH of Example 4 and a placebo toner (toner A) having the same composition as that of the toner of Example 4 except that AOH was not comprised to perform evaluation of the water content of keratin and the transepidermal water loss (TEWL). 22 test subjects (females, average age 48.4±4.68 years old) were asked to apply the toner A on the half face and the toner B on the other half face after washing their faces twice in the morning and evening, and this was continued for 8 weeks. The water content of keratin and the TEWL were measured at the start of the test, after 4 weeks, and after 8 weeks. The water content of stratum corneum and the TEWL on the left and right cheek portions of the test subjects were measured using each of SKICON-200EX (Yayoi Co., Ltd.) and Cyclone Moisture Evaporator AS-CT1 (ASCH Japan Co., Ltd.). Analysis of test results was performed on 20 subjects as effective test subjects excluding 2 test subjects whose left-right difference in the water content of keratin at the start of the test was 150 μS or more.

[4] = Mutagenicity test (Ames test) (OECD TG471); format: cell-based
[5] = AOH treatment, concentration not given

SMILES: O=c1[nH]c2nn[nH]c(=O)c2[nH]1 [AOH, 3H-imidazo[4,5-d][1,2,3]triazine-4,6(5H,7H)-dione]
- Index (%) Mean ± S.D. ([1]; 3.9 μg/mL): 105.7 ± 4.5%
- Index (%) Mean ± S.D. ([1]; 7.8 μg/mL): 108.4 ± 4%
- Index (%) Mean ± S.D. ([1]; 15.6 μg/mL): 108.7 ± 5.6%
- Index (%) Mean ± S.D. ([1]; 31.3 μg/mL): 109.7 ± 5.2%
- Index (%) Mean ± S.D. ([1]; 62.5 μg/mL): 102.3 ± 2.8%
- Index (%) Mean ± S.D. ([1]; 125 μg/mL): 98.6 ± 0.7%
- Index (%) Mean ± S.D. ([1]; 250 μg/mL): 94.2 ± 1.7%
- Index (%) Mean ± S.D. ([1]; 500 μg/mL): 91.9 ± 0.9%
- cytotoxicity compared ([1]; AOH versus AHX): lower cytotoxicity than AHX
- change in Index ([1]; concentrations of 7.8 to 31.3 μg/mL): significant increase in Index
- proliferative effect / cell activating action ([1]; epidermal keratinocytes): has the cell activating action
- ATP5F1 (internal standard) gene expression, Average ([2]; 30 μg/mL): 1.00
- CDH1 (E-cadherin) gene expression, Average ([2]; 30 μg/mL): 1.11
- CLDN1 (claudin 1) gene expression, Average ([2]; 30 μg/mL): 1.19
- DSC1 (desmocollin 1) gene expression, Average ([2]; 30 μg/mL): 1.26
- DSG1 (desmoglein 1) gene expression, Average ([2]; 30 μg/mL): 1.09
- EDN1 (endothelin 1) gene expression, Average ([2]; 30 μg/mL): 1.24
- FN1 (fibronectin) gene expression, Average ([2]; 30 μg/mL): 1.12
- GUSB (internal standard) gene expression, Average ([2]; 30 μg/mL): 0.97
- HAS3 (hyaluronan synthase) gene expression, Average ([2]; 30 μg/mL): 1.09
- IVL (involucrin) gene expression, Average ([2]; 30 μg/mL): 1.35
- KLK5 (kallikrein 5) gene expression, Average ([2]; 30 μg/mL): 1.11
- KLK7 (kallikrein 7) gene expression, Average ([2]; 30 μg/mL): 1.12
- KRT1 (keratin 1) gene expression, Average ([2]; 30 μg/mL): 1.46
- KRT10 (keratin 10) gene expression, Average ([2]; 30 μg/mL): 1.19
- PPIA (Cyclophilin) (internal standard) gene expression, Average ([2]; 30 μg/mL): 0.98
- PTGES (prostaglandin E synthetase) gene expression, Average ([2]; 30 μg/mL): 0.77
- PTGS2 (COX-2) (cyclooxygenase 2) gene expression, Average ([2]; 30 μg/mL): 0.90
- RPLPO (internal standard) gene expression, Average ([2]; 30 μg/mL): 1.03
- SPINK5 (LEKTI1) (serine protease inhibitor) gene expression, Average ([2]; 30 μg/mL): 1.15
- SPRR1B (cornified envelope constituent protein) gene expression, Average ([2]; 30 μg/mL): 1.27
- TGM1 (transglutaminase 1) gene expression, Average ([2]; 30 μg/mL): 1.16
- ATP5F1 (internal standard) gene expression, Average ([2]; 100 μg/mL): 1.02
- CDH1 (E-cadherin) gene expression, Average ([2]; 100 μg/mL): 1.09
- CLDN1 (claudin 1) gene expression, Average ([2]; 100 μg/mL): 1.49
- DSC1 (desmocollin 1) gene expression, Average ([2]; 100 μg/mL): 1.28
- DSG1 (desmoglein 1) gene expression, Average ([2]; 100 μg/mL): 1.13
- EDN1 (endothelin 1) gene expression, Average ([2]; 100 μg/mL): 1.39
- FN1 (fibronectin) gene expression, Average ([2]; 100 μg/mL): 1.15
- GUSB (internal standard) gene expression, Average ([2]; 100 μg/mL): 1.00
- HAS3 (hyaluronan synthase) gene expression, Average ([2]; 100 μg/mL): 1.27
- IVL (involucrin) gene expression, Average ([2]; 100 μg/mL): 1.49
- KLK5 (kallikrein 5) gene expression, Average ([2]; 100 μg/mL): 1.16
- KLK7 (kallikrein 7) gene expression, Average ([2]; 100 μg/mL): 1.24
- KRT1 (keratin 1) gene expression, Average ([2]; 100 μg/mL): 1.60
- KRT10 (keratin 10) gene expression, Average ([2]; 100 μg/mL): 1.33
- PPIA (Cyclophilin) (internal standard) gene expression, Average ([2]; 100 μg/mL): 0.96
- PTGES (prostaglandin E synthetase) gene expression, Average ([2]; 100 μg/mL): 0.79
- PTGS2 (COX-2) (cyclooxygenase 2) gene expression, Average ([2]; 100 μg/mL): 0.93
- RPLPO (internal standard) gene expression, Average ([2]; 100 μg/mL): 1.06
- SPINK5 (LEKTI1) (serine protease inhibitor) gene expression, Average ([2]; 100 μg/mL): 1.28
- SPRR1B (cornified envelope constituent protein) gene expression, Average ([2]; 100 μg/mL): 1.42
- TGM1 (transglutaminase 1) gene expression, Average ([2]; 100 μg/mL): 1.29
- ATP5F1 (internal standard) gene expression, Average ([2]; 300 μg/mL): 1.01
- CDH1 (E-cadherin) gene expression, Average ([2]; 300 μg/mL): 1.16
- CLDN1 (claudin 1) gene expression, Average ([2]; 300 μg/mL): 1.43
- DSC1 (desmocollin 1) gene expression, Average ([2]; 300 μg/mL): 1.59
- DSG1 (desmoglein 1) gene expression, Average ([2]; 300 μg/mL): 1.15
- EDN1 (endothelin 1) gene expression, Average ([2]; 300 μg/mL): 1.75
- FN1 (fibronectin) gene expression, Average ([2]; 300 μg/mL): 1.22
- GUSB (internal standard) gene expression, Average ([2]; 300 μg/mL): 0.97
- HAS3 (hyaluronan synthase) gene expression, Average ([2]; 300 μg/mL): 1.60
- IVL (involucrin) gene expression, Average ([2]; 300 μg/mL): 1.75
- KLK5 (kallikrein 5) gene expression, Average ([2]; 300 μg/mL): 1.24
- KLK7 (kallikrein 7) gene expression, Average ([2]; 300 μg/mL): 1.17
- KRT1 (keratin 1) gene expression, Average ([2]; 300 μg/mL): 2.07
- KRT10 (keratin 10) gene expression, Average ([2]; 300 μg/mL): 1.44
- PPIA (Cyclophilin) (internal standard) gene expression, Average ([2]; 300 μg/mL): 0.99
- PTGES (prostaglandin E synthetase) gene expression, Average ([2]; 300 μg/mL): 0.56
- PTGS2 (COX-2) (cyclooxygenase 2) gene expression, Average ([2]; 300 μg/mL): 0.79
- RPLPO (internal standard) gene expression, Average ([2]; 300 μg/mL): 1.08
- SPINK5 (LEKTI1) (serine protease inhibitor) gene expression, Average ([2]; 300 μg/mL): 1.38
- SPRR1B (cornified envelope constituent protein) gene expression, Average ([2]; 300 μg/mL): 1.60
- TGM1 (transglutaminase 1) gene expression, Average ([2]; 300 μg/mL): 1.57
- gene expression of E-cadherin (CDH1), change in words [2, 5]: significant increase
- gene expression of SPRR1B, change in words [2, 5]: significant increase
- gene expression of claudin 1 (CLDN1), change in words [2, 5]: significant increase
- gene expression of cyclooxygenase (PTGS2), change in words [2, 5]: significant decrease
- gene expression of desmocollin 1 (DSC1), change in words [2, 5]: significant increase
- gene expression of desmoglein 1 (DSG1), change in words [2, 5]: significant increase
- gene expression of endothelin 1 (EDN1), change in words [2, 5]: significant increase
- gene expression of fibronectin (FN1), change in words [2, 5]: slight increase
- gene expression of hyaluronan synthase (HAS3), change in words [2, 5]: significant increase
- gene expression of involucrin (IVL), change in words [2, 5]: significant increase
- gene expression of kallikrein 5 (KLK5), change in words [2, 5]: significant increase
- gene expression of kallikrein 7 (KLK7), change in words [2, 5]: significant increase
- gene expression of keratin 1 (KRT1), change in words [2, 5]: significant increase
- gene expression of keratin 10 (KRT10), change in words [2, 5]: significant increase
- gene expression of prostaglandin E synthetase (PTGES), change in words [2, 5]: significant decrease
- gene expression of serine protease inhibitor (SPIMK5), change in words [2, 5]: significant increase
- gene expression of transglutaminase 1 (TGM1), change in words [2, 5]: significant increase
- moisturizing effect on the skin [3]: has the moisturizing effect on the skin
- toxicity in mutagenicity test (Ames test) [4]: toxicity was not recognized
